Data taken from patent US5470827A, “Method of producing iturin A and antifungal agent for profound mycosis” (Higeta Shoyu Co., Ltd., priority 1993, dated 1995).
Converted amounts (≈) assume the structure as drawn. *1 amine or outer side, *2 acyl side, *3 side chain or, on linkers, in order; H or OH if unused. Where a SMILES comes first, the peptide text is derived from it. [ ]: non-standard residue; d: D form. ξ: configuration not given here. ξβ3hGly(tridecyl) = CCCCCCCCCCCCCC(CC(=O)[*:2])N[*:1]; ξβ3hGly(undecyl) = CCCCCCCCCCCC(CC(=O)[*:2])N[*:1]; X2 = CC(C)CCCCCCCCC[C@H](CC(=O)[*:2])N[*:1]; X6 = CCC(C)CCCCCCCCCCC(CC(=O)[*:2])N[*:1]; X4 = CC(C)CCCCCCCCCCC(CC(=O)[*:2])N[*:1]; X3 = CCC(C)CCCCCCCCC(CC(=O)[*:2])N[*:1]; X5 = CCCCCCCCCCCCC(CC(=O)[*:2])N[*:1]

Key:
[1] = system: Candida albicans 7N; format: cell-based; settings: for MIC: 7N
Method: (§1) The microbicidal spectrum of iturin A, which is the active ingredient in the antifungal agent for profound mycosis of the present invention, may be obtained, for example, from the minimum growth inhibiting concentration (MIC) of iturin A to various fungi such as clinically-isolated strains, animal-infected fungi and others to be obtained on the basis of the method as designated by Japan Chemotherapy Association.
(§2) The antifungal activity of iturin A as produced in Example 1 was measured to identify its antifungal activity. Precisely, the minimum growth inhibiting concentration (MIC) of iturin A4 against fungi was measured on the basis of the method as designated by Japan Chemotherapy Association, and the results shown in Table 6 below were obtained.
In addition, MIC of each of iturin A2 to iturin A8 against Candida albicans 7N was measured in the same manner as above, and the results shown in Table 7 below were obtained.
Fungi used: Candida albicans 7N
Medium used: 0.5% Glucose, Yeastnitrogen base (made by DIFCO Co.)

[2] = system: A. flavas IAM 2044; assay: minimum growth inhibiting concentration (MIC); format: cell-based
Method: as §1, §2

[3] = system: C. tropicalis IFM 40018; assay: minimum growth inhibiting concentration (MIC); format: cell-based
Method: as §1, §2

[4] = system: Mucor guilliermondii IFO 9403; assay: minimum growth inhibiting concentration (MIC); format: cell-based
Method: as §1, §2

[5] = system: C. glabrata IFM 40065; assay: minimum growth inhibiting concentration (MIC); format: cell-based
Method: as §1, §2

[6] = system: Aspergillus fumigatus Tsukuba No. 12; assay: minimum growth inhibiting concentration (MIC); format: cell-based
Method: as §1, §2

[7] = system: Candida albicans IFM 40001; assay: minimum growth inhibiting concentration (MIC); format: cell-based
Method: as §1, §2

[8] = system: Candida albicans IFM 40002; assay: minimum growth inhibiting concentration (MIC); format: cell-based
Method: as §1, §2

[9] = system: Cryptococcus neoformans IFM 40038; assay: minimum growth inhibiting concentration (MIC); format: cell-based
Method: as §1, §2

[10] = system: C. krusei IFM 40019; assay: minimum growth inhibiting concentration (MIC); format: cell-based
Method: as §1, §2

[11] = system: Cryptococcus neoformans IFM 40043; assay: minimum growth inhibiting concentration (MIC); format: cell-based
Method: as §1, §2

[12] = Acute Toxicity Test, oral single administration; format: in vivo, ddy-N mice; settings: for Mortality (%) / Time-Dependent Mortality: oral 2,000 mg/kg once; for Time-Dependent Mortality: day 1; for LD50 (mg/kg): oral single administration
Method: Iturin A4 obtained in Example 1 was dissolved in an injectable distilled water to prepare an aqueous 10% (w/v) solution of iturin A4 to be tested. The test solution was forcedly oral-administered once to five male and five female ddy-N mice, after having been fasted for 13 hours, by the use of a stomach probe. The test ddy-N mice were about 4-week age ones and were obtained from Nippon Medico-Chemical Animal Sources Laboratories Co., Ltd. Prior to the test, all the test mice were preliminarily bred in the laboratory for one week so as to confirm the healthy condition of them. Then, the about 5-week age mice were subjected to the test. The body weight of the test mice just before the test was 28 g (male mice) and from 18 to 22 g (female mice).
To each of the male and female mice, the test solution was administered in an amount of 20 ml per kg of the body weight, whereby 2,000 mg/kg of the test substance was administered to them.

[13] = Acute toxicity, plural intravenous injections; format: in vivo, ddy-N mice; settings: male mice, intravenous 30 mg/kg/day × 14 times
Method: (§3) In the next test, mice of the same kind as mentioned above were used. Iturin A4 was dissolved in DMSO(dimethylsulfoxide)-castor oil-5% Glc solution, and the resulting solution was injected to the caudal vein of each of the five male mice once or plural times. For the single injection, the solution was administered to the mice each in an amount of 200 mg per kg of the body weight; and for the plural injections, it was administered to them 14 times each in an amount of 30 mg/kg/day. After the injection(s), the time-dependent mortality of the test mice was observed and the results shown in Tables 10 and 11 below were obtained.

[14] = Acute toxicity, single intravenous injection; format: in vivo, ddy-N mice; settings: male mice
Method: as §3

[15] = oral 2,000 mg/kg, male and female mice

## CCC(C)CCCCCCCCC1CC(=O)N[C@@H](CC(N)=O)C(=O)N[C@H](Cc2ccc(O)cc2)C(=O)N[C@H](CC(N)=O)C(=O)N[C@@H](CCC(N)=O)C(=O)N2CCC[C@H]2C(=O)N[C@H](CC(N)=O)C(=O)N[C@@H](CO)C(=O)N1 (stereo partly shown) [Iturin A3, iturin A3] (cyclo(N[dY][dN]QP[dN]S[X3]))
[1]
  MIC: 50 µg/mL (≈ 47.3 µM)

## CCC(C)CCCCCCCCCCC1CC(=O)N[C@@H](CC(N)=O)C(=O)N[C@H](Cc2ccc(O)cc2)C(=O)N[C@H](CC(N)=O)C(=O)N[C@@H](CCC(N)=O)C(=O)N2CCC[C@H]2C(=O)N[C@H](CC(N)=O)C(=O)N[C@@H](CO)C(=O)N1 (stereo partly shown) [Iturin A8, iturin A8] (cyclo(N[dY][dN]QP[dN]S[X6]))
[1]
  MIC: 12.5 µg/mL (≈ 11.5 µM)

## CCCCCCCCCCCC1CC(=O)N[C@@H](CC(N)=O)C(=O)N[C@H](Cc2ccc(O)cc2)C(=O)N[C@H](CC(N)=O)C(=O)N[C@@H](CCC(N)=O)C(=O)N2CCC[C@H]2C(=O)N[C@H](CC(N)=O)C(=O)N[C@@H](CO)C(=O)N1 (stereo partly drawn) [Iturin A2, iturin A2] (cyclo(N[dY][dN]QP[dN]S[ξβ3hGly(undecyl)]))
[1]
  MIC: 50 µg/mL (≈ 47.9 µM)

## CC(C)CCCCCCCCC[C@@H]1CC(=O)N[C@@H](CC(N)=O)C(=O)N[C@H](Cc2ccc(O)cc2)C(=O)N[C@H](CC(N)=O)C(=O)N[C@@H](CCC(N)=O)C(=O)N2CCC[C@H]2C(=O)N[C@H](CC(N)=O)C(=O)N[C@@H](CO)C(=O)N1 [Iturin A4, iturin A4] (cyclo(N[dY][dN]QP[dN]S[X2]))
[2]
  MIC (μg/ml) of Iturin A4: 2.4 µg/mL
[3]
  MIC (μg/ml) of Iturin A4: 6.25 µg/mL
[4]
  MIC (μg/ml) of Iturin A4: 1.2 µg/mL
[5]
  MIC (μg/ml) of Iturin A4: 6.25 µg/mL
[6]
  MIC (μg/ml) of Iturin A4: 6.25 µg/mL
[7]
  MIC (μg/ml) of Iturin A4: < 0.05 µg/mL
[8]
  MIC (μg/ml) of Iturin A4: 1.56 µg/mL
[9]
  MIC (μg/ml) of Iturin A4: 3.13 µg/mL
[10]
  MIC (μg/ml) of Iturin A4: 25 µg/mL
[11]
  MIC (μg/ml) of Iturin A4: 0.78 µg/mL
[12]; female mice
  Mortality (%): 0%
  Time-Dependent Mortality: 0/5
  LD50 (mg/kg): > 2,000 mg/kg
[12]; male mice
  Mortality (%): 0%
  Time-Dependent Mortality: 0/5
  LD50 (mg/kg): > 2,000 mg/kg
[12]; [15]
  time until vitality came back to normal after the administration: 2 h
  vitality of the test mice just after the administration: lowered slightly
[13]
  Mortality (%): 0%
[13]; 14 days
  Time-Dependent Mortality: 0/5
[13]; day 1
  Time-Dependent Mortality: 0/5
[14]; single intravenous injection
  LD50: > 200 mg/kg
[14]; single intravenous injection 200 mg/kg
  Mortality (%): 0%
[14]; single intravenous injection 200 mg/kg, day 1
  Time-Dependent Mortality: 0/5
[1]; Candida albicans 7N (Table 6)
  MIC (μg/ml) of Iturin A4: 25 µg/mL

## CCCCCCCCCCCCC1CC(=O)N[C@@H](CC(N)=O)C(=O)N[C@H](Cc2ccc(O)cc2)C(=O)N[C@H](CC(N)=O)C(=O)N[C@@H](CCC(N)=O)C(=O)N2CCC[C@H]2C(=O)N[C@H](CC(N)=O)C(=O)N[C@@H](CO)C(=O)N1 (stereo partly shown) [Iturin A5, iturin A5] (cyclo(N[dY][dN]QP[dN]S[X5]))
[1]
  MIC: 25 µg/mL (≈ 23.6 µM)

## CCCCCCCCCCCCCC1CC(=O)N[C@@H](CC(N)=O)C(=O)N[C@H](Cc2ccc(O)cc2)C(=O)N[C@H](CC(N)=O)C(=O)N[C@@H](CCC(N)=O)C(=O)N2CCC[C@H]2C(=O)N[C@H](CC(N)=O)C(=O)N[C@@H](CO)C(=O)N1 (stereo partly drawn) [Iturin A7, iturin A7] (cyclo(N[dY][dN]QP[dN]S[ξβ3hGly(tridecyl)]))
[1]
  MIC: 6.25 µg/mL (≈ 5.83 µM)

## CC(C)CCCCCCCCCCC1CC(=O)N[C@@H](CC(N)=O)C(=O)N[C@H](Cc2ccc(O)cc2)C(=O)N[C@H](CC(N)=O)C(=O)N[C@@H](CCC(N)=O)C(=O)N2CCC[C@H]2C(=O)N[C@H](CC(N)=O)C(=O)N[C@@H](CO)C(=O)N1 (stereo partly shown) [Iturin A6, iturin A6] (cyclo(N[dY][dN]QP[dN]S[X4]))
[1]
  MIC: 12.5 µg/mL (≈ 11.7 µM)
